Data published in US11034742B2, “Peptides with antibiotic potential against Mycobacterium tuberculosis” (LINNANE PHARMA AB, priority 2017, dated 2021).
Entries after “also recorded” stand apart in the source; their conditions may differ. Like-named read-outs stand apart in the source and are kept apart here. Marks after values point to notes of the source that are not given here. Positions of bridges follow the written chain, without caps; N, C: chain ends. Residues, ends and D or L forms follow the SMILES beside them.

Key:
[1] = system: M. tuberculosis H37Rv and clinical isolate TB2016/268; format: cell-based, Mycobacterium tuberculosis
[2] = system: primary human macrophages; test: Cytotoxicity, MTT assay; format: cell-based; details: for macrophage viability (MTT): 6.3 μM peptide concentration; for toxicity to human cells / macrophages (in words): primary human macrophages
Procedure: (§1) Human venous blood mononuclear cells were obtained from healthy volunteers using a Lymphoprep density gradient (Axis-Shield, Oslo, Norway) according to the manufacturers instructions. To obtain pure monocytes, the cell suspension was applied to CD14 micro beads (MACS), washed and passed through magnetic column according to manufacturers description. The monocytes were counted (Sysmex), diluted in RPMI medium containing GM-CSF (50 ng/mL) and seeded in 96-well plates (10^5/well) for a week to differentiate into macrophages.
(§2) Primary macrophages were prepared from whole blood (see above). The medium was replaced with fresh medium containing 0, 6.3, 12.5, 25 or 100 μM peptides and incubated for 0, 1, 4 and 24 h in 5% CO2 atmosphere. For cytotoxicity measurement, 10 μl 3-(4,5-dimethylthiazol-2-yl)-2,5 diphenyltetrazolium bromide (MTT) solution (Sigma) was added to each well according to manufacturers instructions, and analyzed in a spectrophotometer at 580 nm.

Cytotoxicity, MTT assay = format: cell-based, human; details: human, primary human monocyte-derived macrophages; 6.3 μM peptide concentration; read-out: macrophage viability (MTT)
Procedure: as §1, §2

[3] = system: M. tuberculosis H37Rv and TB2016/268; format: cell-based, Mycobacterium tuberculosis; details: gold-labelled peptide, 6.3 μM
M. tuberculosis H37Rv [4] = format: in vivo, BALB/c mice; details: 0.83 mg
[5] = system: primary human macrophages; test: Cytotoxicity, ATPlite (cellular ATP levels); format: cell-based; details: 100 μM, 24 hours
Procedure: as §1
(§3) The variant antimicrobial peptide of SEQ ID NO: 3 cytotoxicity was further examined by PrestoBlue® and ATPlite™ assays. Primary macrophages were treated with 100 μM variant antimicrobial peptide of SEQ ID NO: 3 or 50 μM Staurosporine (S-4400, Sigma) for 24 hours. Cell viability was assessed with PrestoBlue® fluorescence (A13261, Thermo Scientific) and cellular ATP levels using ATPlite™ kit (#6016943, Perkin Elmer) compared to untreated control, according to the manufacturers' instructions.

M. tuberculosis H37Rv [6] = test: Murine TB model, lung histology and immunohistochemistry; design: species or system BALB/c mice; details: mouse, in vivo
[7] = system: primary human macrophages; test: Cytotoxicity, PrestoBlue (reducing metabolites); format: cell-based; details: 100 μM, 24 hours
Procedure: as §1, §3

human α-thrombin = molecular target: T1, human α-thrombin (Homo sapiens, UniProt P00734); test: Protease sensitivity assay, α-thrombin; format: in vitro ADME; details: 37° C., 6 h
T1 construct: human α-thrombin (0.4 μg Innovative Research); purchased Innovative Research
Procedure: (§4) The variant antimicrobial peptide of SEQ ID NO: 3 (1 μg) was incubated at 37° C. with human neutrophil elastase (HNE, 0.4 μg, 29 units/mg; Calbiochem (La Jolla, Calif.), Cathepsin G (0.4 μg, EMD Millipore) and human α-thrombin (0.4 μg Innovative Research) in a total volume of 20 μL for 6 h. Furthermore 2 μg of the variant antimicrobial peptide of SEQ ID NO: 3 was incubated with 0.4 μg of HNE for kinetic study of peptide degradations. The materials were analyzed on 10-20% precast SDS-PAGE Tris-Tricine gels (Life Technologies) and analyzed after staining with Coomassie Blue R-250. […]

[8] = molecular target: T2, human neutrophil elastase (HNE) (Homo sapiens, UniProt P08246); test: Protease sensitivity assay, HNE; format: in vitro ADME; details: isolated human neutrophil elastase (HNE), after 22 hours, 37° C., read-out: peptide breakdown by HNE
T2 construct: purchased Calbiochem (La Jolla, Calif.)
T2 sequence (P08246 30-267): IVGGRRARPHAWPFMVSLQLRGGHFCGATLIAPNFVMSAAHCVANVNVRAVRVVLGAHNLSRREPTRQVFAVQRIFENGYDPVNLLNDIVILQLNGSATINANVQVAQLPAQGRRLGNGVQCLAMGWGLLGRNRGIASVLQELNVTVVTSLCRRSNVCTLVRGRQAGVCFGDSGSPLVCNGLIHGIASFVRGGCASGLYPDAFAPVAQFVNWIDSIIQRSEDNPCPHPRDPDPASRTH
Procedure: as §4

Cathepsin G = molecular target: T3, Cathepsin G (Homo sapiens, UniProt P08311); test: Protease sensitivity assay, Cathepsin G; format: in vitro ADME; details: 37° C., 6 h
T3 construct: purchased EMD Millipore
T3 sequence (P08311 21-244): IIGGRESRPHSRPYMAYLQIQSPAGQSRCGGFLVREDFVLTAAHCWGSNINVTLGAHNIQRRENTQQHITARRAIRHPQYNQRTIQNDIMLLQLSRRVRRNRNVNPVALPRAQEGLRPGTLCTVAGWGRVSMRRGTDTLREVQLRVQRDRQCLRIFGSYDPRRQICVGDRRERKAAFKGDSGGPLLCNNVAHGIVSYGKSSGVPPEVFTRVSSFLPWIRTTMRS
Procedure: as §4

M. tuberculosis = details: Table 1; from Schon et al. 2009; cited from earlier work

| SMILES | Mycobacterial killing efficiency [1] [%] | macrophage viability (MTT) [2] [%] | toxicity to human cells / macrophages (in words) [2] | viability at 6.3 µM (Cytotoxicity, MTT assay) [%] | association of peptide with the mycobacterial membrane (TEM) [3] | lung CFU reduction vs control animals (M. tuberculosis H37Rv [4]; five days of daily intra-tracheal treatment) [%] | lung CFU reduction vs control animals (M. tuberculosis H37Rv [4]; three days of daily intra-tracheal treatment) [%] | toxicity, cellular ATP levels (ATPlite) [5] | lung tissue damage, inflammation, bacterial and neutrophil counts (IHC, H&E) (M. tuberculosis H37Rv [6]) | toxicity, reducing metabolites (PrestoBlue) [7] | peptide degradation by human α-thrombin (human α-thrombin) | metabolised at 22 h [8] [%] | peptide degradation by Cathepsin G (Cathepsin G) | MIC (mg/L) (M. tuberculosis) | MIC (μM) (M. tuberculosis) |
| --- | --- | --- | --- | --- | --- | --- | --- | --- | --- | --- | --- | --- | --- | --- | --- |
| CC[C@H](C)[C@@H]1NC(=O)[C@H](C)NC(=O)[C@@H]2CSSC[C@H](NC(=O)CNC(=O)[C@H](Cc3ccccc3)NC(=O)CN)C(=O)N[C@@H](CC(N)=O)C(=O)NCC(=O)N3CCC[C@H]3C(=O)N[C@@H](Cc3c[nH]c4ccccc34)C(=O)N[C@@H](CO)C(=O)N[C@@H](CCC(=O)O)C(=O)N[C@@H](CC(=O)O)C(=O)N[C@@H](CC(=O)O)C(=O)N[C@@H]([C@@H](C)CC)C(=O)N[C@@H](CCC(N)=O)C(=O)N[C@H]3CSSC[C@H](NC(=O)[C@H](C(C)C)NC(=O)[C@H](Cc4ccccc4)NC(=O)CNC(=O)CNC1=O)C(=O)N[C@@H](CCCCN)C(=O)N[C@H](C(=O)N[C@@H](Cc1ccc(O)cc1)C(=O)O)CSSC[C@H](NC(=O)[C@H](Cc1c[nH]cn1)NC(=O)[C@H](CC(N)=O)NC(=O)[C@H](Cc1c[nH]cn1)NC3=O)C(=O)N[C@@H](CCCCN)C(=O)N[C@@H](CO)C(=O)N[C@@H]([C@@H](C)CC)C(=O)N[C@@H](CCCCN)C(=O)NCC(=O)N[C@@H](Cc1ccc(O)cc1)C(=O)N[C@@H](CCCCN)C(=O)NCC(=O)NCC(=O)N[C@@H](Cc1ccc(O)cc1)C(=O)N2 [SEQ ID NO: 4] (H-GFGCNGPWSEDDIQCHNHCKSIKGYKGGYCAIGGFVCKCY-OH; disulfide 4-30, 15-37, 19-39 (inferred); N-terminus and C-terminus assumed) | 74.8 | 86.3 | not Toxic to Human Cells | 86.3 |  |  |  |  |  |  |  |  |  |  |  |
| CC[C@H](C)[C@@H]1NC(=O)[C@H](CO)NC(=O)[C@H](CCCCN)NC(=O)[C@@H]2CSSC[C@@H](C(=O)N[C@@H](Cc3ccc(O)cc3)C(=O)O)NC(=O)[C@H](CCCCN)NC(=O)[C@@H]3CSSC[C@H](NC(=O)[C@H](CCC(N)=O)NC(=O)[C@H]([C@@H](C)CC)NC(=O)[C@H](CC(=O)O)NC(=O)[C@H](CC(=O)O)NC(=O)[C@H](CCC(=O)O)NC(=O)[C@H](CO)NC(=O)[C@H](Cc4c[nH]c5ccccc45)NC(=O)[C@@H]4CCCN4C(=O)CNC(=O)[C@H](CC(N)=O)NC(=O)[C@@H](NC(=O)CNC(=O)[C@H](Cc4ccccc4)NC(=O)CN)CSSC[C@H](NC(=O)[C@H](Cc4ccc(O)cc4)NC(=O)CNC(=O)CNC(=O)[C@H](CCCCN)NC(=O)[C@H](Cc4ccc(O)cc4)NC(=O)CNC(=O)[C@H](CCCCN)NC1=O)C(=O)N[C@@H](C)C(=O)N[C@@H](CCCNC(=N)N)C(=O)NCC(=O)NCC(=O)N[C@@H](Cc1ccccc1)C(=O)N[C@@H](C(C)C)C(=O)N3)C(=O)N[C@@H](Cc1c[nH]cn1)C(=O)N[C@@H](CC(N)=O)C(=O)N[C@@H](Cc1c[nH]cn1)C(=O)N2 [SEQ ID NO: 3] (H-GFGCNGPWSEDDIQCHNHCKSIKGYKGGYCARGGFVCKCY-OH; disulfide 4-30, 15-37, 19-39 (inferred); N-terminus and C-terminus assumed) | 73.8 | 87.5 | not Toxic to Human Cells | 87.5 | associated with the mycobacterial envelope within one hour of exposure and disrupted bacterial membranes; also recorded: associated with the mycobacterial membrane | 86 | 46 | did not show any toxicity | less tissue damage, lower bacterial and neutrophil counts than infected controls; also recorded: low counts of both neutrophils and bacteria in the lungs | did not show any toxicity | only HNE showed peptide degradation | ~50 | only HNE showed peptide degradation |  |  |
| NNC(=O)c1ccncc1 [Isoniazid] |  |  |  |  |  |  |  |  |  |  |  |  |  | 0.2* mg/L | 1.5* μM |
| CC[C@@H](CO)NCCN[C@@H](CC)CO [Ethambutol] |  |  |  |  |  |  |  |  |  |  |  |  |  | 5.0* mg/L | 24.5* μM |
